Assay results as given in BindingDB's records for doi:10.1016/s0960-894x(03)00663-2 (Universidad De Buenos Aires, 2003).

Key:
[1] = biological target: Farnesyl pyrophosphate synthase (Trypanosoma cruzi); experiment: Inhibition of Trypanosoma cruzi farnesyl pyrophosphate synthase
[2] = Binding affinity towards Trypanosoma cruzi farnesyl pyrophosphate synthase (TcFPPS)
[3] = biological target: Farnesyl pyrophosphate synthase (Trypanosoma cruzi); experiment: as above
[4] = as above; remark: listed apart in the source

Row | SMILES | IC50 [1] | Ki [2] | Ki [3] | Ki [4]
1 | CCCCC(P(=O)(O)O)P(=O)(O)O [(1-Phosphono-pentyl)-phosphonic acid] | 5.71 µM | 0.79 µM | – | –
2 | CCCC(P(=O)(O)O)P(=O)(O)O [(1-Phosphono-butyl)-phosphonic acid] | 150 µM | 17 µM | – | –
3 | CCC(P(=O)(O)O)P(=O)(O)O [(1-Phosphono-propyl)-phosphonic acid] | > 100 µM | – | – | –
4 | CCCCCCCCC(P(=O)(O)O)P(=O)(O)O [(1-Phosphono-nonyl)-phosphonic acid] | 4.25 µM | – | 0.31 µM | –
5 | CCCCCCCC(P(=O)(O)O)P(=O)(O)O [(1-Phosphono-octyl)-phosphonic acid] | 19.7 µM | – | 1.88 µM | –
6 | CCCCCCC(P(=O)(O)O)P(=O)(O)O [(1-Phosphono-heptyl)-phosphonic acid] | 4.54 µM | – | 0.54 µM | –
7 | CCCCCC(P(=O)(O)O)P(=O)(O)O [(1-Phosphono-hexyl)-phosphonic acid] | 5.67 µM | – | – | 0.47 µM
